Literature values in patent US20040115261A1, “Controlled delivery of tetracycline compounds and tetracycline derivatives” (priority 2003, published 2004).

Conditions: based on steady-state pharmacokinetics, minimum antibiotic serum concentration = lowest concentration known to exert a significant antibiotic effect

CN(C)[C@@H]1C(O)=C(C(N)=O)C(=O)[C@@]2(O)C(O)=C3C(=O)c4c(O)cccc4[C@@](C)(O)[C@H]3C[C@@H]12 [tetracycline]
plasma antibiotic threshold level: 0.5 µg/mL
